From ChEMBL document CHEMBL1201862, “PubChem BioAssay data set” (2004)
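Tested at 5 concentrations; 48 h exposure; 96-well plates; endpoints linearly interpolated, else capped at highest concentration. At the GI50, growth is halved.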 The source made the active and inactive calls. Rule as the data show it: active = GI50 up to about 1.1 µM and inactive = higher. Where a SMILES comes first, the peptide text is derived from it. The star is where a group is joined. Boc = CC(C)(C)OC(=O)*

Columns and labels:
Assay in all cases: DTP human tumour cell line panel, 48 h
DMS-273 = test system: DMS-273
HOP-18 = test system: HOP-18
M19-MEL = test system: M19-MEL
DMS-114 = test system: DMS-114
XF498 = test system: XF498
SNB-78 = test system: SNB-78
LXFL 529 = test system: LXFL 529
RXF 631 = test system: RXF 631
DLD-1 = test system: DLD-1

Measured: GI50

C1CN(c2nnc(N3CCC3)nn2)C1
inactive: DMS-273 > 43.2 µM | HOP-18 > 100 µM | M19-MEL 15.1 µM | DMS-114 21.3 µM | XF498 22.2 µM | SNB-78 57.4 µM | LXFL 529 21.3 µM | RXF 631 > 10 µM | DLD-1 > 100 µM

COc1ccc(NC(=O)CC(=O)n2nc(-c3ccccc3)c(/N=N/c3ccccc3C(=O)O)c2-c2ccccc2)cc1
inactive: DMS-273 > 100 µM | M19-MEL > 100 µM | DMS-114 > 100 µM | LXFL 529 > 100 µM | RXF 631 > 100 µM | DLD-1 > 100 µM

c1ccc2cc(-c3cc4ccccc4s3)ccc2c1
inactive: DMS-273 > 100 µM | HOP-18 > 100 µM | M19-MEL > 100 µM | DMS-114 > 100 µM | XF498 > 100 µM | SNB-78 > 100 µM | DLD-1 > 100 µM

COc1ccc(/C(Cl)=C/c2ccc(Cl)c(Cl)c2)cc1
inactive: DMS-273 24.4 µM | HOP-18 16.5 µM | M19-MEL 30.6 µM | DMS-114 16.6 µM | XF498 22.4 µM | SNB-78 23.6 µM | LXFL 529 33.8 µM | DLD-1 25.9 µM

Nc1nc(SCc2ccccc2Cl)c2ncn(C3OC(CO)C(O)C3O)c2n1 (stereo unspecified)
inactive: DMS-273 65.6 µM | HOP-18 > 100 µM | M19-MEL > 100 µM | DMS-114 43.5 µM | LXFL 529 50.9 µM | DLD-1 > 100 µM

COc1ccc2c(C(=O)O)cc3cc(OC)c(OC)cc3c2c1
inactive: DMS-273 > 100 µM | HOP-18 > 100 µM | M19-MEL > 100 µM | XF498 > 100 µM | SNB-78 > 100 µM | LXFL 529 > 100 µM | RXF 631 > 100 µM | DLD-1 > 100 µM

O=[N+]([O-])c1ccc(/C=C/c2ccc(/C=C/c3ccc([N+](=O)[O-])cc3[N+](=O)[O-])cc2)c([N+](=O)[O-])c1
inactive: DMS-273 > 100 µM | DMS-114 > 100 µM | XF498 > 100 µM | SNB-78 > 100 µM | LXFL 529 > 100 µM | DLD-1 > 100 µM

CSc1cnc2ccccc2c1Sc1c[nH]c2ccccc2c1=O
inactive: DMS-273 8.38 µM | HOP-18 14.9 µM | M19-MEL 5.22 µM | DMS-114 5.7 µM | SNB-78 57.3 µM | LXFL 529 8.67 µM | DLD-1 11.7 µM

Cc1ccc(C(=O)O/N=C2/CCCCC2CN(C)C)cc1 (stereo unspecified)
inactive: DMS-273 > 100 µM | HOP-18 > 100 µM | M19-MEL > 100 µM | DMS-114 > 100 µM | SNB-78 > 100 µM | LXFL 529 > 100 µM | RXF 631 > 100 µM | DLD-1 > 100 µM

COC1/C(=C\C(C)=O)c2ccccc2N1C(C)=O (stereo unspecified)
inactive: DMS-273 > 100 µM | HOP-18 > 100 µM | M19-MEL > 100 µM | XF498 > 100 µM | LXFL 529 > 100 µM | RXF 631 > 100 µM | DLD-1 > 100 µM

CCn1c(O)c(C(=O)Nc2cccs2)c(=O)n(CC)c1=S
inactive: M19-MEL 19.1 µM | DMS-114 15.4 µM | SNB-78 17.8 µM | LXFL 529 14.9 µM | RXF 631 19 µM | DLD-1 33.3 µM

CC(=O)CC(=O)CCCC(=O)Nc1ccc(Cl)cc1C
inactive: DMS-273 > 100 µM | HOP-18 > 100 µM | M19-MEL > 100 µM | DMS-114 > 100 µM | SNB-78 > 100 µM | LXFL 529 > 100 µM | RXF 631 > 100 µM | DLD-1 > 100 µM

COc1ccc(/C(Cl)=C(\C=O)c2cc(OC)c(OC)c(OC)c2)cc1OC
inactive: DMS-273 35.8 µM | HOP-18 12.2 µM | M19-MEL 35.2 µM | DMS-114 12.1 µM | SNB-78 16.8 µM | LXFL 529 11.2 µM | RXF 631 19.7 µM

O=[N+]([O-])c1cc2c(cc1O)[nH]c1cccc([N+](=O)[O-])c12
inactive: DMS-273 > 100 µM | HOP-18 33.9 µM | M19-MEL > 100 µM | DMS-114 > 100 µM | XF498 > 100 µM | SNB-78 > 100 µM | DLD-1 > 100 µM

CC(C)(C)OC(=O)NC(Cc1ccc(O)cc1)C(=O)N1CCCC1C(=O)O (stereo not drawn) (Boc-Tyr-Pro-OH; configuration not given here)
inactive: DMS-273 > 100 µM | HOP-18 > 100 µM | M19-MEL > 100 µM | DMS-114 > 100 µM | XF498 > 100 µM | SNB-78 > 100 µM | LXFL 529 > 100 µM | RXF 631 > 100 µM | DLD-1 > 100 µM

COc1ccc(Br)c(CCCCC(=O)O)c1
inactive: DMS-273 > 100 µM | HOP-18 > 100 µM | M19-MEL > 100 µM | DMS-114 > 100 µM | XF498 > 100 µM | SNB-78 > 100 µM | LXFL 529 > 100 µM | DLD-1 > 100 µM

S=c1sc2c(n1-c1ccccc1)N=CNC2S (stereo unspecified)
inactive: DMS-273 > 100 µM | HOP-18 28.8 µM | M19-MEL 96.4 µM | DMS-114 31.1 µM | XF498 > 100 µM | SNB-78 87.5 µM | LXFL 529 > 100 µM | DLD-1 > 100 µM

O=S(=O)(O)CS(=O)(=O)OCCCl
inactive: DMS-273 > 100 µM | HOP-18 81.8 µM | M19-MEL > 100 µM | DMS-114 > 100 µM | XF498 > 100 µM | SNB-78 > 100 µM | LXFL 529 > 100 µM | RXF 631 > 100 µM | DLD-1 > 100 µM

O=C(CC1(O)C(=O)Nc2ccccc21)c1ccco1 (stereo unspecified)
inactive: DMS-273 > 100 µM | M19-MEL > 100 µM | DMS-114 > 100 µM | XF498 > 100 µM | SNB-78 > 100 µM | LXFL 529 > 100 µM | DLD-1 > 100 µM

N#Cc1c(NN)nc(NN)c(C#N)c1-c1ccccc1
inactive: DMS-273 > 100 µM | HOP-18 > 100 µM | M19-MEL > 100 µM | DMS-114 > 100 µM | XF498 > 100 µM | SNB-78 > 100 µM | LXFL 529 > 100 µM | RXF 631 > 100 µM | DLD-1 > 100 µM

COc1ccc2c(c1)[n+]([O-])c(C(N)=O)c(N)[n+]2[O-]
inactive: DMS-273 71.9 µM | HOP-18 > 100 µM | M19-MEL 73.3 µM | DMS-114 35.6 µM | SNB-78 > 100 µM | LXFL 529 66.4 µM | RXF 631 34 µM | DLD-1 > 100 µM

CCOC(=O)C/C(=N\c1cc(C)on1)N(CC)CC.[O-][Cl+3]([O-])([O-])O
inactive: DMS-273 > 100 µM | M19-MEL > 100 µM | DMS-114 > 100 µM | XF498 > 100 µM | SNB-78 > 100 µM | LXFL 529 > 100 µM | DLD-1 > 100 µM

c1ccc2c(CNCCCN3CCN(CCCNCc4cccc5ccccc45)CC3)cccc2c1
inactive: DMS-273 1.97 µM | HOP-18 6.21 µM | M19-MEL 1.89 µM | DMS-114 2 µM | XF498 1.77 µM | SNB-78 2.21 µM | LXFL 529 1.77 µM | RXF 631 1.13 µM | DLD-1 1.75 µM

CCC(=O)c1cn(C)c(=O)c2ccccc12
inactive: DMS-273 > 100 µM | DMS-114 > 100 µM | XF498 > 100 µM | SNB-78 > 100 µM | LXFL 529 > 100 µM | RXF 631 > 100 µM | DLD-1 > 100 µM
